Four compounds from PMC9994261 (Cell, 2023) can be followed below.

Values after ≈ are worked out from the molar mass of the structure shown. Values joined by “and” are separate entries in the source; they are usually repeats but may differ in a detail not shown here. Equal entries are not always repeated. Where two headings read alike, the source gives them in different places.

Experiment [1] relates to Mtb H37Rv SEQ-9 resistant mutants. It is filed as cell-based, Mycobacterium tuberculosis.
The subject of experiment [2] is Mtb clinical strains. Put plainly: microbe, parasite or virus in culture. It is filed as cell-based. The following applies: Mycobacterium tuberculosis, read-out: MIC against Mtb clinical strain.

Take `CC[C@H]1OC(=O)[C@H](C)[C@@H](O[C@H]2C[C@@](C)(OC)[C@@H](O)[C@H](C)O2)[C@H](C)[C@@H](O[C@@H]2O[C@H](C)C[C@H](N(C)C)[C@H]2O)[C@](C)(OC)C[C@@H](C)C(=O)[C@H](C)[C@@H](O)[C@]1(C)O` [Clarithromycin]: the “Growth inhibition @ 30µM” value in experiment [1] (30 µM) is 55% and 70%.
With `CON=C1CC(C)OC(OC2C(C)CC(C)(OC(=O)NC(C)(C)CNS(=O)(=O)c3ccccc3)C(=O)C(C)C(OC(=O)CC(C)C)C(C)C(C(C)COC3OC(C)C(O)C(OC)C3OC)OC(=O)C(C)C(OC3CC(C)N(C)CC(C)O3)C2C)C1O` (stereo not drawn) [SEQ-9], the MIC is 0.9 µM (≈ 1.12 µg/mL) in experiment [2] (KMA1354-Modern); 1.4 µM (≈ 1.74 µg/mL) in experiment [2] (KMA3899-Ancient); 1.4 µM (≈ 1.74 µg/mL) in experiment [2] (KMA4244-Modern); 1.4 µM (≈ 1.74 µg/mL) in experiment [2] (KMA4439-Modern); 0.6 µM (≈ 0.746 µg/mL) in experiment [2] (KMA5282-Modern); 0.7 µM (≈ 0.87 µg/mL) in experiment [2] (KMA5319-Modern).
With `COc1nc2ccc(Br)cc2cc1[C@@H](c1ccccc1)[C@@](O)(CCN(C)C)c1cccc2ccccc12` [BDQ, Bedaquiline], the “Growth inhibition (MIC80)” value in experiment [1] was 0.044 µM and 0.042 µM and 0.036 µM.
Same read-out and setting: in the case of `CC(=O)NC[C@H]1CN(c2ccc(N3CCOCC3)c(F)c2)C(=O)O1` [Linezolid] it was 0.92 µM and 0.95 µM and 1.14 µM and 0.80 µM and 0.79 µM.
